Measurements reported in patent US20090088432A1, “Thiazolinones and Oxazolinones and their Use as Ptp1b Inhibitors” (priority 2005, published 2009).

What follows are compounds tested against T1, Recombinant human Protein-tyrosine phosphatase1B (PTP1B) (Homo sapiens, UniProt P18031) (assay: PTP1B enzyme inhibition assay (pNpp substrate)). Details: inhibition of recombinant human PTP1B, pNpp 5 mM, 30 mins at 25° C; inhibitor concentration not given.
T1 construct: Recombinant human Protein-tyrosine phosphatase1B (PTP1B) (amino acid 1-322 Biomol, USA); purchased Biomol, USA
T1 sequence (P18031 1-322): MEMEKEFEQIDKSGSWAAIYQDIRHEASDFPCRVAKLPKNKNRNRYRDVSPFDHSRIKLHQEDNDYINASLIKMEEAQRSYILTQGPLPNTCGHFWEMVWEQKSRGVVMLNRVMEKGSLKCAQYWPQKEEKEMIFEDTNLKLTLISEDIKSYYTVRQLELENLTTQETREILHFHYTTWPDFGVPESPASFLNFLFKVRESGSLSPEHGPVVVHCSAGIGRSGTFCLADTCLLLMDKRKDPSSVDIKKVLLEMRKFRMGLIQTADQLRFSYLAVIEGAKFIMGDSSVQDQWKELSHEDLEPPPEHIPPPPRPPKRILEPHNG
Assay type: biochemical
Procedure: Protein tyrosine phosphatase 1B (PTP1B) is an intracellular enzyme which functions by removing the phosphate groups from phosphorylated tyrosine residues of cellular proteins. PTP1B has been implicated as a negative regulator of insulin action and therefore is of therapeutic interest. The ability of the test compounds to inhibit the activity of PTP1B is determined using an enzyme inhibition assay.
The assay is performed using two independent substrates of PTP1B namely, p-nitrophenyl phosphate (pNpp) and the phosphorylated Epidermal growth factor receptor peptide (EGFR).
In the assay performed with pNpp, the action of PTP1B results in the release of p-nitrophenol, which is yellow in colour and can be measured at 410 nm. In the case of the assay using EGFR, action of PTP1B results in the release of free phosphate group. This is trapped using a reagent containing ammonium molybdate and malachite green resulting in a colored complex whose absorbance can be measured at 620 nm.
1× Assay buffer 50 mM HEPES (pH 7.4) • 1 mM EDTA • 1 mM DTT • 0.05% Igepal® CA-630
Dilute recombinant Human PTP1B 1:150 in 1× Assay buffer for 10× stock,
Prepare 10× stock of pNpp (50 mM) in 1× Assay buffer
Prepare 100× stock in 100% DMSO, dilute 1:10 with 1× Assay buffer to get 10× stock in 10% DMSO.
PTP1B inhibition assay was performed using recombinant human PTP1B. PTP1B (0.016 μg/well) was incubated in a buffer containing 50 mM HEPES, 1 mM DTT, 1 mM EDTA and 0.05% Igepal® CA-630 with or without inhibitor (10× stock, final DMSO concentration is 1%) for 30 mins at 25° C. This was followed by addition of p-Nitrophenyl phosphate (pNpp) substrate (5 mM). The final volume of the reaction mixture is 50 μL and experiment was done in 96 well half area plate. The incubation was continued for 30 mins at 25° C. The conversion of pNpp to p-Nitrophenol (pNp) was measured at 410 nm in Spectramaxplus Spectrophotometer (Molecular Devices, USA).

Compound | Activity Score
4-[5-(6-Ethoxy-naphthalen-2-ylmethylene)-4-oxo-4,5-dihydro-thiazol-2-ylamino]-phenyl}-sodium acetate [Compound 143] | (+++) (+++ = >50% inhibition)
O=C(O)Cc1ccc(NC2=NC(=O)C(=Cc3ccc4ccccc4c3)S2)cc1 [Compound 1, [4-(5-Naphthalen-2-ylmethylene-4-oxo-4,5-dihydro-thiazol-2-ylamino)-phenyl]-acetic acid] | (+++) (+++ = >50% inhibition)
O=C(O)Cc1ccc(NC2=NC(=O)C(=Cc3cn(CC(=O)O)c4ccccc34)S2)cc1 [Compound 2, {4-[5-(1-Carboxymethyl-1H-indol-3-ylmethylene)-4-oxo-4,5-dihydro-thiazol-2-ylamino]-phenyl}-acetic acid] | (+++) (+++ = >50% inhibition)
O=C(O)Cc1ccc(NC2=NC(=O)C(=Cc3cc4ccccc4cc3OCc3ccccc3)S2)cc1 [Compound 3, {4-[5-(3-Benzyloxy-naphthalen-2-ylmethylene)-4-oxo-4,5-dihydro-thiazol-2-ylamino]-phenyl}-acetic acid] | (+++) (+++ = >50% inhibition)
O=C(O)Cc1ccc(NC2=NC(=O)C(=Cc3ccccc3)S2)cc1 [Compound 5, [4-(5-Benzylidene-4-oxo-4,5-dihydro-thiazol-2-ylamino)-phenyl]-acetic acid] | (+) (+ = 10-20% inhibition)
COc1ccc2cc(C=C3SC(Nc4ccc(CC(=O)O)cc4)=NC3=O)ccc2c1 [Compound 7, {4-[5-(6-Methoxy-naphthalen-2-ylmethylene)-4-oxo-4,5-dihydro-thiazol-2-ylamino]-phenyl}-acetic acid] | (+++) (+++ = >50% inhibition)
O=C(O)Cc1ccc(NC2=NC(=O)C(=Cc3c[nH]c4ccccc34)S2)cc1 [Compound 8, {4-[5-(1H-Indol-3-ylmethylene)-4-oxo-4,5-dihydro-thiazol-2-ylamino]-phenyl}-acetic acid] | (+) (+ = 10-20% inhibition)
O=C(O)Cc1ccc(NC2=NC(=O)C(=Cc3ccc(-c4ccccc4)cc3)S2)cc1 [Compound 9, [4-(5-Biphenyl-4-ylmethylene-4-oxo-4,5-dihydro-thiazol-2-ylamino)-phenyl]-acetic acid] | (+++) (+++ = >50% inhibition)
CC(C)Oc1cc2ccccc2cc1C=C1SC(Nc2ccc(CC(=O)O)cc2)=NC1=O [Compound 10, {4-[5-(3-Isopropoxy-naphthalen-2-ylmethylene)-4-oxo-4,5-dihydro-thiazol-2-ylamino]-phenyl}-acetic acid] | (++) (++ = 20-50% inhibition)
CC(C)(C)OC(=O)Cn1cc(C=C2SC(Nc3ccc(CC(=O)O)cc3)=NC2=O)c2ccccc21 [Compound 11, {4-[5-(1-tert-Butoxycarbonylmethyl-1H-indol-3-ylmethylene)-4-oxo-4,5-dihydro-thiazol-2-ylamino]-phenyl}-acetic acid] | (++) (++ = 20-50% inhibition)
CC(=C1SC(Nc2ccc(CC(=O)O)cc2)=NC1=O)c1cc2ccccc2o1 [Compound 13, {4-[5-(1-Benzofuran-2-yl-ethylidene)-4-oxo-4,5-dihydro-thiazol-2-ylamino]-phenyl}-acetic acid] | (++) (++ = 20-50% inhibition)
O=C(O)Cc1cccc(NC2=NC(=O)C(=Cc3cc4ccccc4cc3OCc3ccccc3)S2)c1 [Compound 14, {3-[5-(3-Benzyloxy-naphthalen-2-ylmethylene)-4-oxo-4,5-dihydro-thiazol-2-ylamino]-phenyl}-acetic acid] | (++) (++ = 20-50% inhibition)
O=C(O)Cc1cccc(NC2=NC(=O)C(=Cc3ccc4ccccc4c3)S2)c1 [Compound 16, [3-(5-Naphthalen-2-ylmethylene-4-oxo-4,5-dihydro-thiazol-2-ylamino)-phenyl]-acetic acid] | (+) (+ = 10-20% inhibition)
N#Cc1ccccc1-c1ccc(C=C2SC(Nc3ccc(CC(=O)O)cc3)=NC2=O)cc1 [Compound 17, {4-[5-(2′-Cyano-biphenyl-4-ylmethylene)-4-oxo-4,5-dihydro-thiazol-2-ylamino]-phenyl}-acetic acid] | (++) (++ = 20-50% inhibition)
O=C(O)Cc1ccc(NC2=NC(=O)C(=Cc3ccc(-n4cccc4)cc3)S2)cc1 [Compound 18, {4-[4-Oxo-5-(4-pyrrol-1-yl-benzylidene)-4,5-dihydro-thiazol-2-ylamino]-phenyl}-acetic acid] | (+++) (+++ = >50% inhibition)
O=C(O)Cc1ccc(NC2=NC(=O)C(=Cc3ccc(-c4nnn[nH]4)cc3)S2)cc1 [Compound 19, (4-{4-Oxo-5-[4-(1H-tetrazol-5-yl)-benzylidene]-4,5-dihydro-thiazol-2-ylamino}-phenyl)-acetic acid] | (+++) (+++ = >50% inhibition)
CC(C)Oc1cc2ccccc2cc1C=C1SC(Nc2cccc(CC(=O)O)c2)=NC1=O [Compound 21, {3-[5-(3-Isopropoxy-naphthalen-2-ylmethylene)-4-oxo-4,5-dihydro-thiazol-2-ylamino]-phenyl}-acetic acid] | (+++) (+++ = >50% inhibition)
Cc1ccc(S(=O)(=O)NC(=O)Cc2ccc(NC3=NC(=O)C(=Cc4cc5ccccc5cc4OCc4ccccc4)S3)cc2)cc1 [Compound 26, N-(2-{4-[5-(3-Benzyloxy-naphthalen-2-ylmethylene)-4-oxo-4,5-dihydro-thiazol-2-ylamino]-phenyl}-acetyl)-4-methyl-benzenesulfonamide] | (+) (+ = 10-20% inhibition)
O=C(O)Cc1ccc(NC2=NC(=O)C(=Cc3cc4ccccc4cc3O)S2)cc1 [Compound 32, {4-[5-(3-Hydroxy-naphthalen-2-ylmethylene)-4-oxo-4,5-dihydro-thiazol-2-ylamino]-phenyl}-acetic acid] | (+++) (+++ = >50% inhibition)
O=C1N=C(Nc2ccc(Cc3nnn[nH]3)cc2)SC1=Cc1cc2ccccc2cc1OCc1ccccc1 [Compound 33, 5-(3-Benzyloxy-naphthalen-2-ylmethylene)-2-[4-(1H-tetrazol-5-ylmethyl)-phenylamino]-thiazol-4-one] | (+) (+ = 10-20% inhibition)
O=C(O)Cc1ccc(NC2=NC(=O)C(=Cc3ccc(C(=O)N4CCOCC4)cc3)S2)cc1 [Compound 36, (4-{5-[4-(Morpholine-4-carbonyl)-benzylidene]-4-oxo-4,5-dihydro-thiazol-2-ylamino}-phenyl)-acetic acid] | (+) (+ = 10-20% inhibition)
CC(C)(C)c1cc(C=C2SC(Nc3ccc(CC(=O)O)cc3)=NC2=O)cc(C(C)(C)C)c1O [Compound 37, {4-[5-(3,5-Di-tert-butyl-4-hydroxy-benzylidene)-4-oxo-4,5-dihydro-thiazol-2-ylamino]-phenyl}-acetic acid] | (+++) (+++ = >50% inhibition)
O=C(O)CCc1ccc(NC2=NC(=O)C(=Cc3cn(CC(=O)O)c4ccccc34)S2)cc1 [Compound 43, 3-{4-[5-(1-Carboxymethyl-1H-indo-3-ylmethylene)-4-oxo-4,5-dihydro-thiazol-2-ylamino]-phenyl}-propionic acid] | (+++) (+++ = >50% inhibition)
CNS(=O)(=O)Cc1ccc(NC2=NC(=O)C(=Cc3cn(CC(=O)O)c4ccccc34)S2)cc1 [Compound 44, {3-[2-(4-Methylsulfamoylmethyl-phenylamino)-4-oxo-4H-thiazol-5-ylidenemethyl]-indol-1-yl}-acetic acid] | (+) (+ = 10-20% inhibition)
